Laboratory results from patent publication US20240076626A1, “HYDROGEN PEROXIDE EVOLVED HOST CELL” (MedImmune Limited, priority 2020, published 2024).

Columns and labels:
H2O2 evolved host cells [1] = assay: ChemStress assay, survival with prooxidant chemical compounds (PrestoBlue); assay type: cell-based, Chinese hamster; conditions: 72 hours growth in the presence of the stressor
Experimental: To confirm the H2O2 evolved host cell's ability to resist oxidative stress, the cells were evaluated for survival in response to several prooxidant chemical compounds selected to mimic bioreactor stressors: […] These chemicals affect a diverse subset of intracellular redox pathways such as those involved in GSH biosynthesis and turnover (BSO and MS) (Lee et al. (1992) “Effects of buthionine sulfoximine treatment on cellular glutathione levels and cytotoxicities of cisplatin, carboplatin and radiation in human stomach and ovarian cancer cell lines”. Korean J Intern Med. 7(2):111-7; Dunning et al. (2013) “Glutathione and antioxidant enzymes serve complementary roles in protecting activated hepatic stellate cells against hydrogen peroxide-induced cell death”. Biochim Biophys Acta. 1832(12):2027-34), intracellular ROS generation (MSB) (Beck et al. (2011) “Ascorbate/menadione-induced oxidative stress kills cancer cells that express normal or mutated forms of the oncogenic protein Bcr-Abl. An in vitro and in vivo mechanistic study”. […] J Neurosci Res. 64(6):646-53). Chem stress assays were performed according to the manufacturer's instructions (ChemStress®, […], Ireland). In brief, CHO or H2O2 evolved host cells were seeded into […] ChemStress plates (ChemStress®, […], Ireland) at 18,000 cells/well in 90 μl proprietary medium supplemented with 6 mM L-glutamine. A control well was incubated with medium alone. Plates were incubated for 72-hours in a static incubator at 36.5° C., 6% CO2. Following this, 10 μl of neat PrestoBlue dye (Thermo Fisher Scientific, UK) was added to all wells before plates were mixed for 20 seconds and incubated for a further 30 minutes at 36.5° C., 6% CO2. Plates were analyzed using a PHERAstar plate reader (BMG LABTECH, Ortenberg, Germany) with preconfigured protocols (excitation 560 nm, emission 590 nm). Data was analyzed, using the […] software ([…], Ireland).

H2O2 evolved host A = assay: Survival of BisAb-expressing pools in the presence of MSB (Vi-Cell viability); assay type: cell-based, Chinese hamster; conditions: 6 μM MSB, up to 72 hours, cells expressing BisAb A, versus H2O treated control
Experimental: (§1) Expressing pools were compared for survival in the presence of the widely used prooxidant, menadione sodium bisulphite (MSB). Briefly, CHO Control or H2O2 evolved host cells expressing BisAbs A or BisAb B were seeded at 0.3×10^6 cells/ml into 30 ml of proprietary medium supplemented with 50 μM MSX. A total of 6 μM Menadione Sodium Bisulfite (MSB) (Sigma-Aldrich, UK) or water was added to test and control cultures, respectively. Cells were assessed for viability and viable cell density (VCD) using a Vi-Cell XR Cell Viability Analyser (Beckman Coulter, USA) at 24, 48 and 72 hours post addition of MSB or water.

H2O2 evolved host B = assay: as above; assay type: cell-based, Chinese hamster; conditions: 6 μM MSB, up to 72 hours, cells expressing BisAb B, versus H2O treated control
Experimental: as §1

H2O2 evolved host cells [2] = assay: cells; conditions: Cricetulus griseus
Experimental: The H2O2 evolved host and CHO control host were passaged to 90 PDL and 7 PDL respectively in CD-CHO supplemented with 6 mM glutamine after which both hosts were re-challenged with 37 mM H2O2 and viabilities recorded (viability measured on days 1, 2, 4, 7, 10, 11 and 12)
Specifically, CHO-K1 cells adapted to grow in suspension culture (CHO Control) were revived in chemically-defined (CD) CHO medium (Life technologies, Paisley, UK) supplemented with 6 mM L-glutamine (Life technologies, Paisley, UK) and passaged three times at 0.2×10^6 cells/ml in a 30 ml culture volume. When cells reached 99% viability, they were incubated for 1 hour with 14 mM H2O2 (Sigma-Aldrich, UK) before centrifugation at 130 g for 5 minutes and resuspended in 30 ml fresh CD CHO supplemented with 6 mM L-glutamine. CHO cells were left to recover until cells reached 70% viability. This process was repeated an additional three times resulting in a total of four exposures to 14 mM H2O2, in which cells gradually recovered over a period of 10-20 days, with the medium being replenished periodically, until cells reached 70% viability. The cells were then subjected to one round of 18.5 mM H2O2 treatment following the method above until cells reached 90% viability. […]

SMILES | viability of H2O2 evolved host cells compared to CHO control cells (H2O2 evolved host cells [1]) | viability (H2O2 evolved host A) | viability (H2O2 evolved host B) | viability at 37000 µM (H2O2 evolved host cells [2]) [%]
[Cl][Co][Cl] [CoCl, Cobalt chloride] | significantly improved viabilities |  |  | 
CCCCS(=N)(=O)CCC(N)C(=O)O (stereo not shown) [BSO, Buthionine Sulfoximine] | significantly improved viabilities |  |  | 
CC1(S(=O)(=O)[O-])CC(=O)c2ccccc2C1=O.[Na+] (stereo not shown) [MSB, Menadione Sodium Bisulphite] | significantly improved viabilities | comparable with H2O treated controls | comparable with H2O treated controls | 
O=C(O)CC(S)C(=O)O (stereo not shown) [MS, Mercaptosuccinic Acid] | significantly improved viabilities |  |  | 
OO [H2O2, hydrogen peroxide] |  |  |  | ~50
